In publication PMC10653547, “Synergistic effect of two antimicrobial peptides, BP203 and MAP-0403 J-2 with conventional antibiotics against colistin-resistant Escherichia coli and Klebsiella pneumoniae clinical isolates” (PLOS ONE, 2023):

Columns and labels:
[1] = test system: colistin-resistant K. pneumoniae clinical isolates; assay: Disk diffusion antimicrobial susceptibility testing (CLSI); as to Interpreted results of disk diffusion: key: R: resistant; I: intermediate; SDD: susceptible-dose dependent; S: sensitive; assay type: cell-based, Klebsiella pneumoniae; settings: for %Resistance: ten K. pneumoniae isolates, disk diffusion
Experimental: (§1) Ten non-duplicate clinical isolates of colistin-resistant E. coli (EC) and ten non-duplicate clinical isolates of colistin-resistant K. pneumoniae (KP) were obtained from the bacterial repository of the Division of Infectious Diseases and Tropical Medicine, Department of Medicine, Faculty of Medicine Siriraj Hospital, Mahidol University. The species identification was conducted through standard biochemical tests. Antimicrobial susceptibility testing was carried out using the disk diffusion method following CLSI guidelines. Additionally, the assessment of colistin resistance in all isolates was performed by broth microdilution following CLSI recommendations. […] The amino acid sequences of BP203 and MAP-0403 J-2 were retrieved from previous studies. These peptides are BP100 and MAP-0403 analogs, respectively. […] Antibiotic disks and defibrinated sheep blood were obtained from Oxoid (Basingstoke, UK). All culture media were purchased from Becton Dickinson (Frankin Lakes, NJ, USA). All chemicals were obtained from Sigma-Aldrich (St. Louis, MO, USA).

[2] = test system: colistin-resistant E. coli clinical isolates; assay: as above; assay type: cell-based, Escherichia coli; settings: for %Resistance: ten E. coli isolates, disk diffusion
Experimental: as §1

[3] = test system: colistin-resistant K. pneumoniae clinical isolates; assay: Checkerboard assay for synergy testing; assay type: cell-based, Klebsiella pneumoniae
Experimental: (§2) The synergistic activities of various two-antimicrobial combinations against colistin-resistant E. coli and K. pneumoniae isolates were evaluated using the checkerboard assay, which was performed in 96-well plates. […] Two-fold serial dilutions of peptides and antibiotics were independently prepared in CAMHB. Afterward, a mixture of different concentrations of the antibiotics and peptides was added to the wells of the microplates. Antibiotics and peptides were also dispended alone in the first row and the first column, respectively. Bacterial inoculum was added to the 96-well plate to achieve a final concentration of 5 × 10^5 CFU/mL. Then, plates were incubated at 37 °C for 20–24 h. MICs were recorded as the minimum concentration of antimicrobial agents without bacterial growth. The interaction between the antimicrobials was determined by calculating the fractional inhibitory concentration index (FICI) according to the formula: FICI = FIC(drug A) + FIC(drug B), where FIC = the MIC of the drug when in the combination/MIC of drug tested individually.

[4] = test system: colistin-resistant E. coli clinical isolates; assay: Checkerboard assay for synergy testing; assay type: cell-based, Escherichia coli
Experimental: as §2

[5] = isolate KP-01, checkerboard Rifampicin+BP203
[6] = isolate KP-01, checkerboard Rifampicin+MAP-0403 J-2
[7] = isolate KP-02, checkerboard Rifampicin+BP203
[8] = isolate KP-02, checkerboard Rifampicin+MAP-0403 J-2
[9] = isolate KP-03, checkerboard Rifampicin+BP203
[10] = isolate KP-03, checkerboard Rifampicin+MAP-0403 J-2
[11] = isolate KP-04, checkerboard Rifampicin+BP203
[12] = isolate KP-04, checkerboard Rifampicin+MAP-0403 J-2
[13] = isolate KP-05, checkerboard Rifampicin+BP203
[14] = isolate KP-05, checkerboard Rifampicin+MAP-0403 J-2
[15] = isolate KP-06, checkerboard Rifampicin+BP203
[16] = isolate KP-06, checkerboard Rifampicin+MAP-0403 J-2
[17] = isolate KP-07, checkerboard Rifampicin+BP203
[18] = isolate KP-07, checkerboard Rifampicin+MAP-0403 J-2
[19] = isolate KP-08, checkerboard Rifampicin+BP203
[20] = isolate KP-08, checkerboard Rifampicin+MAP-0403 J-2
[21] = isolate KP-09, checkerboard Rifampicin+BP203
[22] = isolate KP-09, checkerboard Rifampicin+MAP-0403 J-2
[23] = isolate KP-10, checkerboard Rifampicin+BP203
[24] = isolate KP-10, checkerboard Rifampicin+MAP-0403 J-2
[25] = isolate EC-01, checkerboard Rifampicin+BP203
[26] = isolate EC-01, checkerboard Rifampicin+MAP-0403 J-2
[27] = isolate EC-02, checkerboard Rifampicin+BP203
[28] = isolate EC-02, checkerboard Rifampicin+MAP-0403 J-2
[29] = isolate EC-03, checkerboard Rifampicin+BP203
[30] = isolate EC-03, checkerboard Rifampicin+MAP-0403 J-2
[31] = isolate EC-04, checkerboard Rifampicin+BP203
[32] = isolate EC-04, checkerboard Rifampicin+MAP-0403 J-2
[33] = isolate EC-05, checkerboard Rifampicin+BP203
[34] = isolate EC-05, checkerboard Rifampicin+MAP-0403 J-2
[35] = isolate EC-06, checkerboard Rifampicin+BP203
[36] = isolate EC-06, checkerboard Rifampicin+MAP-0403 J-2
[37] = isolate EC-07, checkerboard Rifampicin+BP203
[38] = isolate EC-07, checkerboard Rifampicin+MAP-0403 J-2
[39] = isolate EC-08, checkerboard Rifampicin+BP203
[40] = isolate EC-08, checkerboard Rifampicin+MAP-0403 J-2
[41] = isolate EC-09, checkerboard Rifampicin+BP203
[42] = isolate EC-09, checkerboard Rifampicin+MAP-0403 J-2
[43] = isolate EC-10, checkerboard Rifampicin+BP203
[44] = isolate EC-10, checkerboard Rifampicin+MAP-0403 J-2

SMILES: NCC[C@H](O)C(=O)N[C@@H]1C[C@H](N)[C@@H](O[C@H]2O[C@H](CN)[C@@H](O)[C@H](O)[C@H]2O)[C@H](O)[C@H]1O[C@H]1O[C@H](CO)[C@@H](O)[C@H](N)[C@H]1O [AK, amikacin]
- Interpreted results of disk diffusion ([1]; KP-01): S
- Interpreted results of disk diffusion ([1]; KP-02): R
- Interpreted results of disk diffusion ([1]; KP-03): R
- Interpreted results of disk diffusion ([1]; KP-04): R
- Interpreted results of disk diffusion ([1]; KP-05): I
- Interpreted results of disk diffusion ([1]; KP-06): R
- Interpreted results of disk diffusion ([1]; KP-07): S
- Interpreted results of disk diffusion ([1]; KP-08): S
- Interpreted results of disk diffusion ([1]; KP-09): S
- Interpreted results of disk diffusion ([1]; KP-10): S
- %Resistance [1]: 40%
- Interpreted results of disk diffusion ([2]; EC-01): S
- Interpreted results of disk diffusion ([2]; EC-02): S
- Interpreted results of disk diffusion ([2]; EC-03): S
- Interpreted results of disk diffusion ([2]; EC-04): S
- Interpreted results of disk diffusion ([2]; EC-05): S
- Interpreted results of disk diffusion ([2]; EC-06): S
- Interpreted results of disk diffusion ([2]; EC-07): S
- Interpreted results of disk diffusion ([2]; EC-08): S
- Interpreted results of disk diffusion ([2]; EC-09): S
- Interpreted results of disk diffusion ([2]; EC-10): S
- %Resistance [2]: 0%

SMILES: C[C@H]1[C@H](NC(=O)/C(=N\OC(C)(C)C(=O)O)c2csc(N)n2)C(=O)N1S(=O)(=O)O [ATM, aztreonam]
- %Resistance [1]: 100%
- Interpreted results of disk diffusion ([2]; EC-01): R
- Interpreted results of disk diffusion ([2]; EC-02): R
- Interpreted results of disk diffusion ([2]; EC-03): R
- Interpreted results of disk diffusion ([2]; EC-04): R
- Interpreted results of disk diffusion ([2]; EC-05): S
- Interpreted results of disk diffusion ([2]; EC-06): I
- Interpreted results of disk diffusion ([2]; EC-07): R
- Interpreted results of disk diffusion ([2]; EC-08): S
- Interpreted results of disk diffusion ([2]; EC-09): R
- Interpreted results of disk diffusion ([2]; EC-10): R
- %Resistance [2]: 70%

SMILES: CO/N=C(\C(=O)N[C@@H]1C(=O)N2C(C(=O)O)=C(CSc3nc(=O)c(=O)[nH]n3C)CS[C@H]12)c1csc(N)n1 [CRO, ceftriaxone]
- Interpreted results of disk diffusion ([1]; KP-01): R
- Interpreted results of disk diffusion ([1]; KP-02): R
- Interpreted results of disk diffusion ([1]; KP-03): R
- Interpreted results of disk diffusion ([1]; KP-04): R
- Interpreted results of disk diffusion ([1]; KP-05): R
- Interpreted results of disk diffusion ([1]; KP-06): R
- Interpreted results of disk diffusion ([1]; KP-07): R
- Interpreted results of disk diffusion ([1]; KP-08): R
- Interpreted results of disk diffusion ([1]; KP-09): R
- Interpreted results of disk diffusion ([1]; KP-10): R
- %Resistance [1]: 100%
- Interpreted results of disk diffusion ([2]; EC-01): R
- Interpreted results of disk diffusion ([2]; EC-02): R
- Interpreted results of disk diffusion ([2]; EC-03): R
- Interpreted results of disk diffusion ([2]; EC-04): R
- Interpreted results of disk diffusion ([2]; EC-05): R
- Interpreted results of disk diffusion ([2]; EC-06): R
- Interpreted results of disk diffusion ([2]; EC-07): R
- Interpreted results of disk diffusion ([2]; EC-08): R
- Interpreted results of disk diffusion ([2]; EC-09): R
- Interpreted results of disk diffusion ([2]; EC-10): R
- %Resistance [2]: 100%

SMILES: CO[C@H]1/C=C/O[C@@]2(C)Oc3c(C)c(O)c4c(O)c(c(/C=N/N5CCN(C)CC5)c(O)c4c3C2=O)NC(=O)/C(C)=C\C=C\[C@H](C)[C@H](O)[C@@H](C)[C@@H](O)[C@@H](C)[C@H](OC(C)=O)[C@@H]1C [RIF, rifampicin]
- MIC alone [3, 5]: 512 µg/mL
- MIC combination [3, 5]: 16 µg/mL
- MIC alone [3, 6]: 256 µg/mL
- MIC combination [3, 6]: 16 µg/mL
- MIC alone [3, 7]: 512 µg/mL
- MIC combination [3, 7]: 4 µg/mL
- MIC alone [3, 8]: 256 µg/mL
- MIC combination [3, 8]: 16 µg/mL
- MIC alone [3, 9]: 32 µg/mL
- MIC combination [3, 9]: 4 µg/mL
- MIC alone [3, 10]: 32 µg/mL
- MIC combination [3, 10]: 2 µg/mL
- MIC alone [3, 11]: 128 µg/mL
- MIC combination [3, 11]: 4 µg/mL
- MIC alone [3, 12]: 256 µg/mL
- MIC combination [3, 12]: 32 µg/mL
- MIC alone [3, 13]: 16 µg/mL
- MIC combination [3, 13]: 1 µg/mL
- MIC alone [3, 14]: 16 µg/mL
- MIC combination [3, 14]: 1 µg/mL
- MIC alone [3, 15]: 512 µg/mL
- MIC combination [3, 15]: 8 µg/mL
- MIC alone [3, 16]: 256 µg/mL
- MIC combination [3, 16]: 32 µg/mL
- MIC alone [3, 17]: 32 µg/mL
- MIC combination [3, 17]: 4 µg/mL
- MIC alone [3, 18]: 32 µg/mL
- MIC combination [3, 18]: 2 µg/mL
- MIC alone [3, 19]: 16 µg/mL
- MIC combination [3, 19]: 4 µg/mL
- MIC alone [3, 20]: 16 µg/mL
- MIC combination [3, 20]: 2 µg/mL
- MIC alone [3, 21]: 512 µg/mL
- MIC combination [3, 21]: 32 µg/mL
- MIC alone [3, 22]: 256 µg/mL
- MIC combination [3, 22]: 128 µg/mL
- MIC alone [3, 23]: 32 µg/mL
- MIC combination [3, 23]: 4 µg/mL
- MIC alone [3, 24]: 32 µg/mL
- MIC combination [3, 24]: 2 µg/mL
- MIC alone [4, 25]: 2 µg/mL
- MIC combination [4, 25]: 1 µg/mL
- MIC alone [4, 26]: 4 µg/mL
- MIC combination [4, 26]: 0.5 µg/mL
- MIC alone [4, 27]: 4 µg/mL
- MIC combination [4, 27]: 0.25 µg/mL
- MIC alone [4, 28]: 8 µg/mL
- MIC combination [4, 28]: 2 µg/mL
- MIC alone [4, 29]: 4 µg/mL
- MIC combination [4, 29]: 1 µg/mL
- MIC alone [4, 30]: 8 µg/mL
- MIC combination [4, 30]: 0.25 µg/mL
- MIC alone [4, 31]: 4 µg/mL
- MIC combination [4, 31]: 1 µg/mL
- MIC alone [4, 32]: 16 µg/mL
- MIC combination [4, 32]: 4 µg/mL
- MIC alone [4, 33]: 2 µg/mL
- MIC combination [4, 33]: 0.5 µg/mL
- MIC alone [4, 34]: 8 µg/mL
- MIC combination [4, 34]: 2 µg/mL
- MIC alone [4, 35]: 4 µg/mL
- MIC combination [4, 35]: 1 µg/mL
- MIC alone [4, 36]: 8 µg/mL
- MIC combination [4, 36]: 1 µg/mL
- MIC alone [4, 37]: 4 µg/mL
- MIC combination [4, 37]: 1 µg/mL
- MIC alone [4, 38]: 16 µg/mL
- MIC combination [4, 38]: 4 µg/mL
- MIC alone [4, 39]: 2 µg/mL
- MIC combination [4, 39]: 0.5 µg/mL
- MIC alone [4, 40]: 8 µg/mL
- MIC combination [4, 40]: 0.25 µg/mL
- MIC alone [4, 41]: 4 µg/mL
- MIC combination [4, 41]: 2 µg/mL
- MIC alone [4, 42]: 8 µg/mL
- MIC combination [4, 42]: 0.5 µg/mL
- MIC alone [4, 43]: 2 µg/mL
- MIC combination [4, 43]: 0.5 µg/mL
- MIC alone [4, 44]: 8 µg/mL
- MIC combination [4, 44]: 0.5 µg/mL
